# Assay results as given in PMC10810742 (The Journal of Biological Chemistry, 2023).
# Molecular target: T1, CteC36–276 (Chromobacterium violaceum, UniProt Q7NY09)
# T1 construct: gene cteC; residues 36-276 (disordered N-terminal 1-35 removed); SeMet form for the crystal
# Experiment: isothermal titration calorimetry
# Assay type: binding
# T1 sequence (Q7NY09 36-276): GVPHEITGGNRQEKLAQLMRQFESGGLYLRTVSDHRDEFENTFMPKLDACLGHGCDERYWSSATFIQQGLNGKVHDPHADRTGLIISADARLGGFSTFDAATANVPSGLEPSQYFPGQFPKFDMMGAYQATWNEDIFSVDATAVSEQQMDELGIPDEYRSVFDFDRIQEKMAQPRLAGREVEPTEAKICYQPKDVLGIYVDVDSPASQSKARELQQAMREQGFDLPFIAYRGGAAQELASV
smiles,measurement,value
NC(=O)c1ccc[n+]([C@@H]2O[C@H](COP(=O)(O)OP(=O)(O)OC[C@H]3O[C@@H](n4cnc5c(N)ncnc54)[C@H](O)[C@@H]3O)[C@@H](O)[C@H]2O)c1 [NAD^+],Kd,123 µM
